Results from patent publication US6376470B1, “Polymer conjugates of ara-C and ara-C derivatives” (Enzon, Inc., priority 1999, dated 2002).

Key:
[1] = test system: subcutaneous human non-small cell lung carcinoma (LX-1); experiment: In vivo efficacy against subcutaneous LX-1 tumor xenograft in nude mice; settings: for Effectiveness in LX-1 solid tumor model (in words): Ara-C 100 mg/kg/dose, PEG-ara-C 20 mg/kg/dose (one fifth of native dose), i.v. x4; for Mean Vol. ± SEM at Day 24 / % Change ± SEM at Day 24 (mean percent change in individual tumor volumes from initial): LX-1 s.c. in nude mice, PEG-Ara-C 80 mg/kg; for Mean Vol. ± SEM at Day 24: i.v. x4 doses (day 1, 4, 7, 10), baseline 300 mm^3; for Mean Vol. ± SEM at Day 24 / % Change ± SEM at Day 24 (mean percent change in individual tumor volumes from initial) / T/C (%) at Day 7 / T/C (%) at Day 24 / Regression at Day 24 (#/Grp) / Complete Regression (#/Grp): total dose Ara-C 400 mg/kg; for % Change ± SEM at Day 24 (mean percent change in individual tumor volumes from initial): i.v. x4 doses; for T/C (%) at Day 7: median tumor volume treated vs control when control median approx. 1000 mm^3 (day 7); for T/C (%) at Day 7 / T/C (%) at Day 24 / Regression at Day 24 (#/Grp) / Complete Regression (#/Grp): PEG-Ara-C 80 mg/kg i.v.; for T/C (%) at Day 24: median tumor volume treated vs control when control median approx. 2400 mm^3 (day 24); for Regression at Day 24 (#/Grp): smaller tumor volume on day 24 compared to day 1
Method: Athymic nude mice were implanted subcutaneous with a 4-5 mm^3 tissue fragment of LX-1 collected from donor mice. The tumor trocar site was observed twice weekly and measured once palpable. […] The mice were sorted to evenly distribute tumor size, grouped into 6 to 7 mice per group, and ear punched for permanent identification. Drugs were administered intravenously every 3 days×4 doses (day 1, 4, 7 and 10) via the tail vein at an approximate rate of 0.5 mL per minute. […] Therefore, this study compares the PEG-conjugate at one fifth the native dose, and presumably much less than its MTD. Mouse weight and tumor size were measured at the beginning of study and twice weekly through week 4. Drug effectiveness were determined by comparing tumor growth in treated versus untreated (no vehicle) control mice. Five types of endpoints were used as the basis for comparison: (a) mean tumor volumes at day 24; (b) mean percent change in individual tumor volumes from initial; (c) percent difference in tumor volume (%T/C), measured when the control group's median tumor volume reached approximately 800-1100 mm^3 (exponential growth phase); (d) percent difference in tumor volume (%T/C) at day 24 and (e) the number of tumor regression (smaller tumor volume on day 24 compared to day 1) per group.

P388/0 = experiment: In vitro cytotoxicity assay (Alamar Blue), P388/0 cells; assay type: cell-based; settings: 3 days incubation
Method: Cell Lines and Cytotoxicity Assays. Studies using P388/0 cell lines for IC50 (drug concentration inhibiting growth of cells by 50%) were maintained and conducted using standard procedures. Briefly, for IC50 determination, cells were seeded into the microwell plates at a density of 2×10^3 cells per 50 μL per well. Plates were incubated at 37° C. in a humidified incubator with 5% CO2 for 3 days. Cell growth was measured by the addition of 10 μL/well of Alamar Blue (Alamar Biosciences, Inc., Sacramento, Calif.) and the plates were incubated a further 4 hours at 37° C. The IC50 values for each compound were determined from absorbance versus dilution factor plots. All cell cultures for animal implantation were maintained at 37° C. in a humidified atmosphere of 5% CO2/[…] and subcultured once a week. All cell lines were periodically tested for Mycoplasma and were Mycoplasma free.

Compound: Nc1ccn([C@@H]2O[C@H](CO)[C@@H](O)[C@@H]2O)c(=O)n1 [Ara-C, 1-(β-D-arabinofuranosyl)cytosine]
- Effectiveness in LX-1 solid tumor model (in words) [1]: ineffective
- Mean Vol. ± SEM at Day 24 [1]: 3192.5 mm^3
- % Change ± SEM at Day 24 (mean percent change in individual tumor volumes from initial) [1]: 1514.8%
- T/C (%) at Day 7 [1]: 112.2%
- T/C (%) at Day 24 [1]: 144.6%
- Regression at Day 24 (#/Grp) [1]: 0/7
- Complete Regression (#/Grp) [1]: 0/7
- IC50 (P388/0; Mus musculus, 72 h): 10 nM

Compound: Nc1ccn([C@@H]2O[C@H](CO)[C@@H](O)C2(F)F)c(=O)n1 [Gemcitabine, gemcitabine]
- IC50 (P388/0; Mus musculus, 72 h): 2 nM

Compound: PEG-amide-Ara-C [PEG-Ara-C]
- Effectiveness in LX-1 solid tumor model (in words) [1]: significant tumor growth inhibition
- Mean Vol. ± SEM at Day 24 [1]: 2205.0 mm^3
- % Change ± SEM at Day 24 (mean percent change in individual tumor volumes from initial) [1]: 557.4%
- T/C (%) at Day 7 [1]: 76.4%
- T/C (%) at Day 24 [1]: 73.0%
- Regression at Day 24 (#/Grp) [1]: 1/6
- Complete Regression (#/Grp) [1]: 1/6
- IC50 (P388/0): 12 nM

Compound: PEG-amide-Gemcitabine [PEG-Gemcitabine]
- IC50 (P388/0): 46 nM
